The target in experiment [1] is T1, RARα (Homo sapiens, UniProt P10276).
T1 sequence (P10276 1-462): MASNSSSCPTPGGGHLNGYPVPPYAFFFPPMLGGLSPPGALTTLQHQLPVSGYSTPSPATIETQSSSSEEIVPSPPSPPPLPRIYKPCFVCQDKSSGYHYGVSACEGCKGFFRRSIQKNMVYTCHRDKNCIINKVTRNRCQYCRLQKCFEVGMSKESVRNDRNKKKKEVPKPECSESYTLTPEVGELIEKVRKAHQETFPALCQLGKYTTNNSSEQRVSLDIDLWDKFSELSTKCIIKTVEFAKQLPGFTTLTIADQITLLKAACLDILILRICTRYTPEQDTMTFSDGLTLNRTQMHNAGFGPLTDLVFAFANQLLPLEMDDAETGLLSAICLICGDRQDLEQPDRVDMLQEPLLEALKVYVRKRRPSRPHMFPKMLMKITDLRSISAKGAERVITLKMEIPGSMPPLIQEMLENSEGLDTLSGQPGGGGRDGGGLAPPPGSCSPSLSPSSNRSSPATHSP
The experiment is described as follows: ligand binding assay. To be noted: expressed in Ki numbers, read-out: RAR Binding α. The source says: (§1) A holoreceptor transactivation assay and a ligand binding assay which measure the antagonist/agonist like activity of the compounds of the invention, or their ability to bind to the several retinoid receptor subtypes, respectively, are described in published PCT Application No. WO WO93/11755 (particularly on pages 30-33 and 37-41) published on Jun. 24, 1993, the specification of which is also incorporated herein by reference. A detailed experimental procedure for holoreceptor transactivations has been described by Heyman et al. Cell 68, 397-406, (1992); Allegretto et al. J. Biol. Chem. 268, 26625-26633, and Mangelsdorf et al. The Retinoids: Biology, Chemistry and Medicine, pp 319-349, Raven Press Ltd., New York, which are expressly incorporated herein by reference. The results obtained in this assay are expressed in EC50 numbers, as they are also in the chimeric receptor transactivation assay. The other functional assay running in the presence of 1 nM all-trans retinoic acid, namely PGA-RAR antagonist assay (utilizing glucocorticoid-retinoid chimeric receptors), is a modified chimeric receptor transactivation assay which tests the compounds for their antagonist-like activity in the RARα, RARγ and RARγ receptor subtypes. The results from this assay are normally expressed in IC50 numbers (See Teng et al. J. Med. Chem. 40, 2445-2452, (1997) incorporated herein by reference.)
(§2) The results of the ligand binding assay are expressed in Ki numbers. (See Cheng et al. Biochemical Pharmacology Vol. 22 pp 3099-3108, expressly incorporated herein by reference.)

Experiment [2] addresses T2, RARβ (Homo sapiens, UniProt P10826).
T2 sequence (P10826 1-455): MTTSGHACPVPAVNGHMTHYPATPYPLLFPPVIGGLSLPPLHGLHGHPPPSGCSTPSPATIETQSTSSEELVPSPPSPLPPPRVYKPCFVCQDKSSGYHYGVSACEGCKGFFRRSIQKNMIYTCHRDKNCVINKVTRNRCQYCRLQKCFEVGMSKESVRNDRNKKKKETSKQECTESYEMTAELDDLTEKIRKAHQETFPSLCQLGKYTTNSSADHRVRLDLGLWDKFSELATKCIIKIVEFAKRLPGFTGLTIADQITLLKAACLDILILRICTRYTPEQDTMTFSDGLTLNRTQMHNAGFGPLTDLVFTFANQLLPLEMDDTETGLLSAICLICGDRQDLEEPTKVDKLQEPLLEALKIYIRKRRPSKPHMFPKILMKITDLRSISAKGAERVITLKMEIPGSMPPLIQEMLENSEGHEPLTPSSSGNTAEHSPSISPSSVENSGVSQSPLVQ
The experiment is described as follows: ligand binding assay. The conditions noted are these: expressed in Ki numbers, read-out: RAR Binding β.
From the text: as §1, §2

Another experiment has as its target T3, RARγ (Homo sapiens, UniProt P13631).
T3 sequence (P13631 185-419 limits assumed): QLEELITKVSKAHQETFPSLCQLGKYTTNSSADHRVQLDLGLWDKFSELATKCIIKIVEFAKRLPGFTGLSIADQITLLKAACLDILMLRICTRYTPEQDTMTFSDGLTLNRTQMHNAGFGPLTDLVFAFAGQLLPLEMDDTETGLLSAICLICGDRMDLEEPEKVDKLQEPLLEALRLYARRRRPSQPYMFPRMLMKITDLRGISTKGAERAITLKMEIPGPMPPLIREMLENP
The experiment is described as follows: chimeric receptor transactivation assay (agonist-like activity). The format is cell-based. Further details: RAR EC50 (nM) (% Efficiency) γ. To be noted: read-out: RAR EC50 (nM) (% Efficiency) γ.

The target in experiment [3] is T4, RARα (Homo sapiens, UniProt P10276).
T4 sequence (P10276 183-417 limits assumed): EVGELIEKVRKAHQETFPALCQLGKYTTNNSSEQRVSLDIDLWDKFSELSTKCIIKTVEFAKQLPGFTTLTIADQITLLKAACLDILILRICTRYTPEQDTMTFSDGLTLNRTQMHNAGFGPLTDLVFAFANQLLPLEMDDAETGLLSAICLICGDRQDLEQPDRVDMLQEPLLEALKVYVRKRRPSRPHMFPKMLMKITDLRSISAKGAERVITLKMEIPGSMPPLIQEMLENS
The experiment is described as follows: PGA-RAR antagonist assay (glucocorticoid-retinoid chimeric receptors). In kind it is cell-based. Further details: other: in the presence of 1 nM all-trans retinoic acid; fused on or other part: Glucocorticoid receptor DNA-recognition part in place of RAR's own. The conditions noted are these: in the presence of 1 nM all-trans retinoic acid; read-out: RAR IC50 (nM) (% Inhibition) α.
From the text: as §1
(§3) Percentage inhibition in an antagonist assay is expressed as a percentage of the maximum inhibition of the transaction activity induced by 1 nM all-trans retinoic acid.

The target of experiment [4] is T5, RARβ (Homo sapiens, UniProt P10826).
T5 sequence (P10826 183-417 limits assumed): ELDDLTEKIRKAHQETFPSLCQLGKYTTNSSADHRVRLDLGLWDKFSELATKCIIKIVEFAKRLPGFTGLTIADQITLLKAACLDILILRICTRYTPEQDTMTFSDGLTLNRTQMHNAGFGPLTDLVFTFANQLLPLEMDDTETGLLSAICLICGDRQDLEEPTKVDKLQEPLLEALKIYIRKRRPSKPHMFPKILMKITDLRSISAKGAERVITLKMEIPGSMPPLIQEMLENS
The experiment is described as above. The format is cell-based. Set-up: other: in the presence of 1 nM all-trans retinoic acid; fused on or other part: Glucocorticoid receptor DNA-recognition part in place of RAR's own. The conditions noted are these: in the presence of 1 nM all-trans retinoic acid; read-out: RAR IC50 (nM) (% Inhibition) β.
From the text: as §1, §3

Bounds are passed on as bounds.

In general, EC50 refers to the concentration at which the effect is half-maximal. By IC50 is commonly meant the concentration that inhibits the measured activity by half.

For `Cc1ccc(C2=CCC(C)(C)c3cc(C(/C=C/c4ccc(C(=O)O)cc4F)=N/O)ccc32)cc1` [Compound 9a, E-4-[3-(8,8-Dimethyl-5-p-tolyl-7,8-dihydro-naphthalen-2-yl)-3-hydroxyimino-propenyl]-3-fluoro-benzoic acid], the Ki on RARα [1] was found to be 13 µM; on RARβ [2], 15 µM. Further, the EC50 on RARγ is > 10000 nM. Further, the IC50 on RARα [3] and on RARβ [4] was > 1000 nM throughout.
With `Cc1ccc(C2=CCC(C)(C)c3cc(C(/C=C/c4ccc(C(=O)O)cc4)=N\O)ccc32)cc1` [Compound 7b, Z-4-[3-(8,8-dimethyl-5-p-tolyl-7,8-dihydro-naphthalen-2-yl)-3-hydroxyimino-propenyl]-benzoic acid], the Ki was 5.2 µM at RARα [1] and 1.9 µM on RARβ [2]. Moreover, the EC50 at RARγ is > 10000 nM. Also, the IC50 on RARα [3] and on RARβ [4] was > 1000 nM each time.
On to `Cc1ccc(C2=CC(C)(C)c3cc(C(/C=C/c4ccc(C(=O)O)cc4)=N\O)ccc32)cc1` [Compound 16b], for which the Ki on RARα [1] was 7 µM; on RARβ [2], 10 µM. The EC50 on RARγ is > 10000 nM. The IC50 on RARα [3] and at RARβ [4] was > 1000 nM in each case.
For the compound `Cc1ccc(C2=CC(C)(C)c3cc(C(/C=C/c4ccc(C(=O)O)cc4)=N/O)ccc32)cc1` [Compound 16a], the Ki at RARα [1] came out at 9 µM; at RARβ [2], 10 µM. For the same compound, the EC50 at RARγ is > 10000 nM. Also, the IC50 at RARα [3] and on RARβ [4] was > 1000 nM each time.
With `Cc1ccc(C2=CCC(C)(C)c3cc(C(/C=C/c4ccc(C(=O)O)cc4F)=N\O)ccc32)cc1` [Compound 9b, Z-4-[3-(8,8-Dimethyl-5-p-tolyl-7,8-dihydro-naphthalen-2-yl)-3-hydroxyimino-propenyl]-3-fluoro-benzoic acid], the Ki on RARα [1] worked out at 13 µM; at RARβ [2], 10 µM. Besides, the EC50 at RARγ is > 10000 nM. In addition, the IC50 at RARα [3] and on RARβ [4] was > 1000 nM in each case.
`Cc1ccc(C2=CCC(C)(C)c3cc(C(/C=C/c4ccc(C(=O)O)cc4)=N/O)ccc32)cc1` [Compound 7a, E-4-[3-(8,8-Dimethyl-5-p-tolyl-7,8-dihydro-naphthalen-2-yl)-3-hydroxyimino-propenyl]-benzoic acid]: the Ki is 3 µM at RARα [1] and 5 µM at RARβ [2]. The EC50 at RARγ is > 10000 nM. The IC50 on RARα [3] and on RARβ [4] was > 1000 nM in each case.
Turning to `Cc1ccc(C2=CC(C)(C)c3cc(C(/C=C/c4ccc(C(=O)O)cc4F)=N/O)ccc32)cc1` [Compound 18a, E-4-[3-(3,3-Dimethyl-1-p-tolyl-3H-inden-5-yl)-3-hydroxyimino-propenyl]-3-fluoro-benzoic acid], the Ki on RARα [1] is 12 µM; on RARβ [2] it was 10 µM. Besides, the half-maximal effective concentration (EC50) on RARγ was > 10000 nM. The IC50 at RARα [3] and at RARβ [4] was > 1000 nM throughout.
On to `Cc1ccc(C2=CCC(C)(C)c3cc(C(/C=C/c4ccc(C(=O)O)cc4)=NO)ccc32)cc1` (racemic) [Compound 7c, 4-[3-(8,8-Dimethyl-5-p-tolyl-7,8-dihydro-naphthalen-2-yl)-3-hydroxyimino-propenyl]-benzoic acid], for which the Ki on RARα [1] turned out to be 2.9 µM; on RARβ [2], 1.3 µM. For the same compound, on RARγ, the EC50 was > 10000 nM. For the same compound, the IC50 at RARα [3] was > 50000 nM; on RARβ [4], > 100000 nM.
With `Cc1ccc(C2=CC(C)(C)c3cc(C(/C=C/c4ccc(C(=O)O)cc4F)=N\O)ccc32)cc1` [Compound 18b, Z-4-[3-(3,3-Dimethyl-1-p-tolyl-3H-inden-5-yl)-3-hydroxyimino-propenyl]-3-fluoro-benzoic acid], the Ki was found to be 23 µM on RARα [1] and 10 µM on RARβ [2]. Also, the EC50 at RARγ is > 10000 nM. Further, the IC50 at RARα [3] and at RARβ [4] was > 1000 nM in each case.

For the origin of these results see patent US7432388B2 (Allergan, Inc., priority 2003, dated 2008).
